From ChEMBL document CHEMBL3425423, “Hydroxy tricyclic 1,5-naphthyridinone oxabicyclooctane-linked novel bacterial topoisomerase inhibitors as broad-spectrum antibacterial agents-SAR of RHS moiety (Part-3)” (Bioorg Med Chem Lett, 2015)
Converted amounts (≈) assume the structure as drawn.

Assays:
Assay type in all cases: functional
Acinetobacter baumannii = experiment: Antibacterial activity against Acinetobacter baumannii IID876; settings: Acinetobacter baumannii, IID876; read-out: MIC
Enterococcus faecium = experiment: Antibacterial activity against VanA-type vancomycin-resistant Enterococcus faecium A2373; settings: Enterococcus faecium, A2373; read-out: MIC
Enterococcus faecalis = experiment: Antibacterial activity against Enterococcus faecalis ATCC 29212; settings: Enterococcus faecalis, ATCC 29212; read-out: MIC
Staphylococcus aureus [1] = experiment: Ratio of MIC for quinolone-resistant Staphylococcus aureus MS5935 to MIC for quinolone-sensitive Staphylococcus aureus
Staphylococcus aureus [2] = experiment: Antibacterial activity against Staphylococcus aureus Smith
Escherichia coli = experiment: Antibacterial activity against Escherichia coli ATCC 25922; settings: Escherichia coli, ATCC 25922; read-out: MIC
Streptococcus pneumoniae = experiment: Antibacterial activity against Streptococcus pneumoniae IID554; settings: Streptococcus pneumoniae, IID554; read-out: MIC
Pseudomonas aeruginosa = experiment: Antibacterial activity against Pseudomonas aeruginosa PAO1; settings: Pseudomonas aeruginosa, PAO1; read-out: MIC
Moraxella catarrhalis = experiment: Antibacterial activity against Moraxella catarrhalis ATCC 25238; settings: Moraxella catarrhalis, ATCC 25238; read-out: MIC
Haemophilus influenzae = experiment: Antibacterial activity against Haemophilus influenzae ATCC 49247; settings: Haemophilus influenzae, ATCC 49247; read-out: MIC
[3] = Staphylococcus aureus, Smith, read-out: MIC

Row | SMILES | MIC (Acinetobacter baumannii) [µg/mL] | MIC (Enterococcus faecium) [µg/mL] | MIC (Enterococcus faecalis) [µg/mL] | Ratio (Staphylococcus aureus [1]) | MIC (Staphylococcus aureus [2]; [3]) [µg/mL] | MIC (Escherichia coli) [µg/mL] | MIC (Streptococcus pneumoniae) [µg/mL] | MIC (Pseudomonas aeruginosa) [µg/mL] | MIC (Moraxella catarrhalis) [µg/mL] | MIC (Haemophilus influenzae) [µg/mL] | MIC (Staphylococcus aureus [2]) [µg/mL]
1 | O=c1ccc2ncc(F)c3c2n1C[C@@]3(O)CC12CCC(NC/C=C/c3c(F)cccc3F)(CC1)CO2 | 2 (≈ 4.02 µM) | 8 (≈ 16.1 µM) | 4 (≈ 8.04 µM) | <4 | 0.063 (≈ 0.127 µM) | 16 (≈ 32.2 µM) | 0.25 (≈ 0.502 µM) | 32 (≈ 64.3 µM) | – | – | –
2 | O=c1ccc2ncc(F)c3c2n1C[C@@]3(O)CC12CCC(NCc3cc(-c4cccs4)on3)(CC1)CO2 | 16 (≈ 31.5 µM) | 16 (≈ 31.5 µM) | 2 (≈ 3.93 µM) | <4 | 0.25 (≈ 0.492 µM) | 16 (≈ 31.5 µM) | 0.5 (≈ 0.983 µM) | 16 (≈ 31.5 µM) | – | – | –
3 | O=c1ccc2ncc(F)c3c2n1C[C@@]3(O)CC12CCC(NCc3cc4c(cn3)SCCO4)(CC1)CO2 | 2 (≈ 3.92 µM) | 4 (≈ 7.83 µM) | 2 (≈ 3.92 µM) | – | 0.12 (≈ 0.235 µM) | 16 (≈ 31.3 µM) | 0.25 (≈ 0.49 µM) | 32 (≈ 62.7 µM) | 0.5 (≈ 0.979 µM) | 8 (≈ 15.7 µM) | –
4 | O=c1ccc2ncc(F)c3c2n1C[C@@]3(O)CC12CCC(NC/C=C/c3cc(F)ccc3F)(CC1)CO2 | 0.25 (≈ 0.502 µM) | 8 (≈ 16.1 µM) | 4 (≈ 8.04 µM) | <4 | 0.063 (≈ 0.127 µM) | 4 (≈ 8.04 µM) | 0.25 (≈ 0.502 µM) | 8 (≈ 16.1 µM) | – | – | –
5 | O=c1ccc2ncc(F)c3c2n1C[C@@]3(O)CC12CCC(NCc3cc4c(nn3)OCCO4)(CC1)CO2 | 32 (≈ 64.6 µM) | 32 (≈ 64.6 µM) | 8 (≈ 16.1 µM) | – | 4 (≈ 8.07 µM) | 32 (≈ 64.6 µM) | 2 (≈ 4.04 µM) | 32 (≈ 64.6 µM) | 32 (≈ 64.6 µM) | 32 (≈ 64.6 µM) | –
6 | O=C1COc2ccc(C(=O)NC34CCC(C[C@]5(O)Cn6c(=O)ccc7ncc(F)c5c76)(CC3)OC4)nc2N1 | 16 (≈ 30.7 µM) | 16 (≈ 30.7 µM) | 8 (≈ 15.3 µM) | <4 | 1 (≈ 1.92 µM) | 32 (≈ 61.4 µM) | 4 (≈ 7.67 µM) | 32 (≈ 61.4 µM) | – | – | 0.25 (≈ 0.479 µM)
7 | O=c1ccc2ncc(F)c3c2n1C[C@@]3(O)CC12CCC(NC/C(F)=C/c3cc(F)ccc3F)(CC1)CO2 | 16 (≈ 31 µM) | 16 (≈ 31 µM) | 16 (≈ 31 µM) | <4 | 4 (≈ 7.76 µM) | 16 (≈ 31 µM) | 8 (≈ 15.5 µM) | 16 (≈ 31 µM) | – | – | –
8 | CN1CCOc2nc(CNC34CCC(C[C@]5(O)Cn6c(=O)ccc7ncc(F)c5c76)(CC3)OC4)ccc21 | 16 (≈ 31.5 µM) | 16 (≈ 31.5 µM) | 16 (≈ 31.5 µM) | <4 | 2 (≈ 3.94 µM) | 16 (≈ 31.5 µM) | 4 (≈ 7.88 µM) | 16 (≈ 31.5 µM) | – | – | –
9 | O=c1ccc2ncc(F)c3c2n1C[C@@]3(O)CC12CCC(NC/C=C/c3ccccn3)(CC1)CO2 | 32 (≈ 69.2 µM) | 64 (≈ 138 µM) | 32 (≈ 69.2 µM) | <4 | 1 (≈ 2.16 µM) | 64 (≈ 138 µM) | 4 (≈ 8.65 µM) | 64 (≈ 138 µM) | – | – | –
10 | O=c1ccc2ncc(F)c3c2n1C[C@@]3(O)CC12CCC(NCOc3cc(F)ccc3F)(CC1)CO2 | 4 (≈ 8.21 µM) | 32 (≈ 65.6 µM) | 16 (≈ 32.8 µM) | <4 | 1 (≈ 2.05 µM) | 32 (≈ 65.6 µM) | 2 (≈ 4.1 µM) | 64 (≈ 131 µM) | – | – | –
11 | O=c1ccc2ncc(F)c3c2n1C[C@@]3(O)CC12CCC(NC/C(F)=C\c3cc(F)ccc3F)(CC1)CO2 | 16 (≈ 31 µM) | 16 (≈ 31 µM) | 4 (≈ 7.76 µM) | <4 | 0.25 (≈ 0.485 µM) | 16 (≈ 31 µM) | 1 (≈ 1.94 µM) | 16 (≈ 31 µM) | – | – | –
12 | COc1ccc2nc(CNC34CCC(C[C@]5(O)Cn6c(=O)ccc7ncc(F)c5c76)(CC3)OC4)c(F)cc2n1 | 16 (≈ 29.9 µM) | 16 (≈ 29.9 µM) | 16 (≈ 29.9 µM) | <4 | 16 (≈ 29.9 µM) | 16 (≈ 29.9 µM) | 16 (≈ 29.9 µM) | 16 (≈ 29.9 µM) | – | – | –
